# In patent US8911998B2, “Methods for identifying fragile histidine triad (FHIT) interaction and uses thereof” (priority 2007, dated 2014):
# Peptide text beside a SMILES is read from it. * marks the point of attachment. Cbz = O=C(OCc1ccccc1)*
# Tests used:
# H1299 D1 cells [1] = experiment: Flow cytometry (propidium iodide) of PonA-induced Fhit-expressing cells; assay type: cell-based; conditions: for sub-G1 population: 48 h
# Protocol: (§8) FIG. 4E, FACS analysis of D1 and E1 cell cycle kinetics at 48 h after oxidative stress treatment. Cells were treated with PonA for 48 h and then with increasing concentrations of H2O2 (0.25 and 0.5 mM) for 4 h. Analysis was at 48 h after H2O2 treatment. All experiments were performed twice in triplicate.
# (§9) FIG. 6C and FIG. 6D, the graphs show representative results of flow cytometry analyses of E1 and D1 cells. Cells were treated with PonA for 48 h and then with paclitaxel (50-500 ng/ml) (FIG. 6C) or cisplatin (0.05-0.2 mM) (FIG. 6D). Each data point was measured in triplicate at 24, 48, and 72 h (data shown for 48 h).
# (§10) PonA-induced H1299 D1 and E1 cells were treated with 0.25 and 0.5 mM H2O2 or with chemotherapeutic drugs and incubated for varying times, as indicated in the text and figures. For both experiments the cells were collected, washed with phosphate-buffered saline, and resuspended in cold 70% ethanol. For analysis, cells were spun down, washed in phosphate-buffered saline, and suspended in 0.1 mg/ml propidium iodide/Triton X-100 staining solution (0.1% Triton X-100, 0.2 mg/ml DNase-free RNase A) for 30 min at room temperature and analyzed by flow cytometry.
# H1299 E1 cells [2] = experiment: Flow cytometry (propidium iodide) of PonA-treated Fhit-negative control cells; assay type: cell-based; conditions: for sub-G1 population: 48 h
# Protocol: as §8, §9, §10
# H1299 D1 and E1 cells = experiment: MTS cell viability assay, D1 compared with E1 cells; conditions: for sensitivity of D1 cells relative to E1 cells (MTS cell viability): after induction of Fhit expression, paclitaxel 50-500 ng/ml or cisplatin 0.05-0.2 mM, 24 or 48 h
# Protocol: FIG. 4D, MTS cell viability assays were performed on E1 and D1 cells. Cells were treated with PonA for 48 h and then with increasing concentrations of H2O2 (0.125, 0.25, and 0.5 mM) for 4 h. Analysis was at 24 h after H2O2 treatment. Columns report the average of four experiments ±S.E. Each point was measured in quadruplicate and standard deviation calculated; p<0.05 was considered significant.
# MTS assays performed on E1 and D1 cells. Cells were treated with PonA for 48 h and then treated with paclitaxel (50-500 ng/ml) (FIG. 6A) or cisplatin (0.05-0.2 mM) (FIG. 6B) for 24 or 48 h.
# Chemotherapeutic Drug Treatment—Paclitaxel (Sigma) was dissolved in DMSO as a 10 mmol/liter stock solution and stored at −80° C. Cisplatin (Sigma) was dissolved in water and freshly prepared before use. H1299 D1 and E1 cells were seeded (1×10^4 cells/well) in 96-well culture plates, PonA-induced, and after 24 h treated with paclitaxel (50, 100, and 500 ng/ml) or cisplatin (0.05, 0.1, and 0.2 mM). H1299 D1 and E1 cells PonA-induced were incubated for 24, 48, and 72 h and assessed for viability with an MTS kit (Cell Titer 96® Aqueous MTS kit, Upstate Biotechnology, Lake Placid, N.Y.), as recommended by the manufacturer.
# PonA-induced D1 cells = experiment: Immunoblot of caspase 3 and Parp1 cleavage; assay type: cell-based; conditions: 48 h; paclitaxel 50 and 100 ng/ml, cisplatin 0.05 and 0.1 mM; compared with untreated cells
# Protocol: FIG. 6E, caspase 3 and Parp1 cleavage: immunoblot analyses, using Fhit, caspase 3, and Parp1 antisera, of total cell lysates from PonA-induced D1 cells after 48 h of treatment with paclitaxel (50 and 100 ng/ml) or cisplatin (0.05 and 0.1 mM). GAPDH served as loading control.
# At 24 and 72 h (data not shown) increased sub-G1 populations in D1 compared with E1 cells were also detected. To determine whether the sub-G1 fractions of D1 cells represented apoptotic cells, lysates were prepared from drug-treated cells at 48 h and immunoblot analysis performed for caspase 3 and Parp1 cleavage (FIG. […]).
# (§1) Western Blot Analysis—Immunoblot analyses were performed as described (13) using monoclonal anti-pentaHis (Qiagen); rabbit polyclonal anti-Fhit (Zymed Laboratories Inc.); rabbit polyclonal antisera against GFP, Hsp60, Hsp10, and cytochrome c (Santa Cruz Biotechnology); rabbit polyclonal anti-Fdxr (Abcam); monoclonal anti-CoxIV (Molecular Probes); anti-V5 (Sigma); anti-Parp1 (Santa Cruz Biotechnology); and anti-caspase 3 (Cell Signaling). Protein levels were normalized relative to β-actin or/and GAPDH^3 level, detected with appropriate antisera (Santa Cruz Biotechnology).
# [3] = test system: A549 cells transiently expressing Fhit; experiment: Intracellular superoxide (ROS) by hydroethidine FACS, FHIT plasmid-transfected cells; assay type: cell-based, human
# Protocol: (§2) FIG. 4A, fluorescence-activated cell sorter (FACS) analysis for ROS assessment in A549 cells 48 h after transfection with FHIT plasmid, with and without a 5-h H2O2 treatment. Empty vector-transfected cells served as control. Intracellular superoxide was determined according to the fluorescence of ethidium as a result of oxidation of hydroethidine by O2. M2 refers to the fraction of ROS positive cells.
# (§3) The inventors herein then investigated determine whether ROS production could be involved in Fhit-mediated apoptosis. […] The inventors examined ROS production in A549 cells, with and without H2O2 treatment, after transient transfection with the FHIT expression plasmid. Intracellular superoxide was assessed by measuring ethidium fluorescence, as a result of oxidation of hydroethydine by superoxide. Intracellular superoxide was measured 5 h after stimulation with increasing concentrations of H2O2.
# (§4) Assessment of Intracellular Reactive Oxygen Species (ROS)—Intracellular superoxide was measured through ethidium fluorescence as a result of oxidation by hydroethidine (dihydroethidium-HE; Molecular Probes). MNK74 stably Fhit expressing cells, A549 cells transiently expressing Fhit, and H1299 inducible Fhit expressing cells were treated with 0.5, 1.0, 2.0, and 4.0 mM H2O2 at 37° C.; 4 h later, hydroethidine (10 μM) was added to cells and incubated for 15 min at 37° C. Fluorescence was measured by flow cytometry. Dichlorofluorescein diacetate (DCFH-DA) (Molecular Probes) was used in D1 cells expressing induced Fhit, stressed with H2O2 (0.1 to 1.0 mM), treated with 10 μM DCFH-DA, and incubated for 1 h at 37° C. DCF fluorescence was measured by flow cytometry on a FAC-Scan flow cytometer and fluorescence microscopy.
# [4] = test system: A549 cells (empty vector); experiment: Intracellular superoxide (ROS) by hydroethidine FACS, empty vector-transfected cells; assay type: cell-based, human
# Protocol: as §2, §3, §4
# H1299 D1 cells [5] = experiment: ROS assessment by hydroethidine FACS, Fhit-positive cells; assay type: cell-based; conditions: 5 μM PonA 48 h
# Protocol: (§5) FIG. 4B, FACS analysis for ROS assessment by the fluorescence produced from the oxidation of hydroethidine in D1 and E1 cells; 48 h after PonA treatment, cells were treated for 5 h with 0.5 and 1.0 mM H2O2 and oxidative stress was measured; % positive refers to the fraction of fluorescent cells, indicating ROS. These experiments were repeated three times with similar results.
# (§6) A similar experiment was performed with p53 and Fhit negative lung cancer-derived H1299 D1 and E1 clones carrying PonA-inducible FHIT and empty vector expression plasmids, respectively; the cells were treated with 5 μM PonA and at 48 h treated with 0.5 and 1.0 mM H2O2; the % ROS-positive cells was higher in Fhit-positive D1 cells than in E1 control cells (20 versus 3.5% at 0.5 mM H2O2, and 78 versus 25% at 1.0 mM H2O2, respectively) (FIG. 4B).
# (§7) Assessment of Intracellular Reactive Oxygen Species (ROS)—Intracellular superoxide was measured through ethidium fluorescence as a result of oxidation by hydroethidine (dihydroethidium-HE; Molecular Probes). […] Fluorescence was measured by flow cytometry. […] DCF fluorescence was measured by flow cytometry on a FAC-Scan flow cytometer and fluorescence microscopy.
# H1299 E1 cells [6] = experiment: ROS assessment by hydroethidine FACS, control cells; assay type: cell-based; conditions: 5 μM PonA 48 h
# Protocol: as §5, §6, §7
# H1299/D1 cells = experiment: Colony formation assay; assay type: cell-based; conditions: Fhit-expressing cells, 0.25 mM or higher H2O2, 5-h treatment
# Protocol: FIG. 4F, colony formation assay of H1299/D1 and H1299/E1 cells after […] PonA stimulation and a 5-h H2O2 treatment at the indicated concentrations.
# MKN74A116 cells = experiment: ROS assessment in gastric cancer cells expressing exogenous Fhit; assay type: cell-based, human; conditions: Fhit-expressing MKN74 cells, 2 mM H2O2, 5 hr
# Protocol: FIG. 10. TABLE 2, Fhit induces generation of ROS in MKN74 gastric cancer cells. ROS assessment was performed with MKN74A116, a human gastric cancer cell line carrying a p53 mutant allele and expressing exogenous Fhit; Fhit-negative MKN74E4 cells were used as a control. To induce ROS generation, we treated MKN74 cells for 5 hr with 0.5, 1.0 and 2.0 mM H2O2. […] Numbers report the average of four experiments ±S.E.
# as §4
# Fdxr in D1 and E1 cells = experiment: Immunoblot of Fdxr protein level after proteasome inhibition; assay type: cell-based; conditions: 4 h after MG132 treatment (25 μA)
# Protocol: FIG. 5B, immunoblot analysis of Fdxr expression in D1 and E1 cells after a 4-h treatment with 25 μA MG132, a proteasome inhibitor.
# as §1
structure (smiles),measurement,setting,value
"CC(=O)O[C@H]1C(=O)[C@@]2(C)[C@H]([C@H](OC(=O)c3ccccc3)[C@]3(O)C[C@H](OC(=O)[C@H](O)[C@@H](NC(=O)c4ccccc4)c4ccccc4)C(C)=C1C3(C)C)[C@]1(OC(C)=O)CO[C@@H]1C[C@@H]2O [paclitaxel, Paclitaxel]",sub-G1 population,H1299 D1 cells [1]; paclitaxel 50 ng/ml,9.6%
same,sub-G1 population,H1299 D1 cells [1]; paclitaxel 100 ng/ml,36%
same,sub-G1 population,H1299 D1 cells [1]; paclitaxel 500 ng/ml,40%
same,sub-G1 population,H1299 E1 cells [2]; paclitaxel 50 ng/ml,4%
same,sub-G1 population,H1299 E1 cells [2]; paclitaxel 100 ng/ml,16.7%
same,sub-G1 population,H1299 E1 cells [2]; paclitaxel 500 ng/ml,30%
same,sensitivity of D1 cells relative to E1 cells (MTS cell viability),H1299 D1 and E1 cells,more sensitive
same,activated caspase 3 and related Parp1 cleavage,PonA-induced D1 cells,observed
OO [H2O2],G2/M arrest,H1299 D1 cells [1]; 48 h after 0.25 mM H2O2,45.5%
same,G2/M arrest,H1299 D1 cells [1]; 48 h after 0.5 mM H2O2,49.5%
same,G2/M arrest,H1299 E1 cells [2]; 48 h after 0.25 mM H2O2,27.5%
same,G2/M arrest,H1299 E1 cells [2]; 48 h after 0.5 mM H2O2,29%
same,ROS generation (fraction of ROS positive cells),"[3]; FHIT-transfected A549, 0.5 mM H2O2, 5 h",16.7%
same,ROS generation (fraction of ROS positive cells),"[3]; FHIT-transfected A549, 1.0 mM H2O2, 5 h",18.8%
same,toxicity to cells,"[3]; Fhit-expressing A549, 2 mM H2O2",toxic
same,ROS generation (fraction of ROS positive cells),"[4]; empty vector A549, 0.5 mM H2O2, 5 h",5.4%
same,ROS generation (fraction of ROS positive cells),"[4]; empty vector A549, 1.0 mM H2O2, 5 h",7.7%
same,toxicity to cells,"[4]; non-expressing A549, 2 mM H2O2",not to non-expressing cells
same,% ROS-positive cells,H1299 D1 cells [5]; 0.5 mM H2O2,20%
same,% ROS-positive cells,H1299 D1 cells [5]; 1.0 mM H2O2,78%
same,% ROS-positive cells,H1299 E1 cells [6]; 0.5 mM H2O2,3.5%
same,% ROS-positive cells,H1299 E1 cells [6]; 1.0 mM H2O2,25%
same,colony formation,H1299/D1 cells,No colonies were detected
same,cell viability (MTS cytotoxicity assay),"H1299 D1 and E1 cells; 24 h after H2O2 treatment (0.125, 0.25, 0.5 mM, 4 h)","reduced cell viability or growth arrest in both E1 and D1 cells, but this phenotype was more pronounced in D1 cells"
same,toxicity to cells,MKN74A116 cells,toxicity was observed
"N.N.[Cl][Pt][Cl] [cisplatin, Cisplatin]",sub-G1 population,H1299 D1 cells [1]; cisplatin 0.05 mM,5%
same,sub-G1 population,H1299 D1 cells [1]; cisplatin 0.1 mM,16.2%
same,sub-G1 population,H1299 D1 cells [1]; cisplatin 0.2 mM,30%
same,sub-G1 population,H1299 E1 cells [2]; cisplatin 0.05 mM,2.3%
same,sub-G1 population,H1299 E1 cells [2]; cisplatin 0.1 mM,7%
same,sub-G1 population,H1299 E1 cells [2]; cisplatin 0.2 mM,14.6%
same,sensitivity of D1 cells relative to E1 cells (MTS cell viability),H1299 D1 and E1 cells,more sensitive
same,activated caspase 3 and related Parp1 cleavage,PonA-induced D1 cells,observed
CC(C)C[C@@H](C=O)NC(=O)[C@H](CC(C)C)NC(=O)[C@H](CC(C)C)NC(=O)OCc1ccccc1 [MG132] (Cbz-Leu-Leu-Leu-aldehyde),Fdxr protein level in D1 cells compared with E1 cells,Fdxr in D1 and E1 cells,significant increase
